The text below walks through data of ChEMBL document CHEMBL3774335, “Tactical Approaches to Interconverting GPCR Agonists and Antagonists” (J Med Chem, 2016).

One test deals with Melanocortin receptor 4 (Homo sapiens, UniProt P32245). As to the kind of experiment: Displacement of 125I-NDP-a-MSH from human Melanocortin receptor 4 after 2 hrs by TopCount microplate scintillation and luminescence counter. Background: In a radioligand displacement assay an active substance lowers the binding of a labelled ligand.
Sequence of Melanocortin receptor 4 (P32245 whole entry): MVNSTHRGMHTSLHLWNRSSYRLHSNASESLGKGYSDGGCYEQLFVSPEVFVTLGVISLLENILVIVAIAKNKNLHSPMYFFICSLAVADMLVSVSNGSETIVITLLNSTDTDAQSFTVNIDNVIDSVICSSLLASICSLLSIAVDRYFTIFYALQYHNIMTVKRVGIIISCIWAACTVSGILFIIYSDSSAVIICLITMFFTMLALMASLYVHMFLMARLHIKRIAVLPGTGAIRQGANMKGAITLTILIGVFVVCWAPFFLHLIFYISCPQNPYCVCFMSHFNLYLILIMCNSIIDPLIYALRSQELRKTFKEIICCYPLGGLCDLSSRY
Test [1] is described as follows: Displacement of 125I-[Sar1, Ile8] AngII from rat AT1 receptor expressed in COS1 cells. The class given is cell-based. The conditions noted are these: cos-1.
The target in test [2] is Histamine H3 receptor (Homo sapiens) (UniProt Q9Y5N1). As to the kind of experiment: Partial agonist activity at human histamine H3 receptor expressed in SK-N-MC cells by beta-galactosidase reporter gene assay relative to histamine. It is filed as cell-based. Background: Reporter assays use an easily measured gene product as a stand-in for the process of interest.
Sequence of Histamine H3 receptor (Homo sapiens) (Q9Y5N1 whole entry): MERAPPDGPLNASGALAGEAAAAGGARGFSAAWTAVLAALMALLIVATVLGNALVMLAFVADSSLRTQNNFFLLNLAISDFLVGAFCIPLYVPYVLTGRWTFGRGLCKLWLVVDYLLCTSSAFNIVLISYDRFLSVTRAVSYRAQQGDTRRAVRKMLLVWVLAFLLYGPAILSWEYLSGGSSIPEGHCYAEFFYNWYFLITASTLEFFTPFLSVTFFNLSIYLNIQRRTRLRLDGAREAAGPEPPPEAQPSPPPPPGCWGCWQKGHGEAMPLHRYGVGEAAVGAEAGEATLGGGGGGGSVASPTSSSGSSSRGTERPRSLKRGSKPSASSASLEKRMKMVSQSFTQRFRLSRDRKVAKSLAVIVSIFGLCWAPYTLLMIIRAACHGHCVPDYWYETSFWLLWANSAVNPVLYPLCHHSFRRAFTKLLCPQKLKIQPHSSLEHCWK
Test [3] concerns the target T1, Type-2 angiotensin II receptor (Homo sapiens, UniProt P50052).
T1 sequence (P50052 whole entry): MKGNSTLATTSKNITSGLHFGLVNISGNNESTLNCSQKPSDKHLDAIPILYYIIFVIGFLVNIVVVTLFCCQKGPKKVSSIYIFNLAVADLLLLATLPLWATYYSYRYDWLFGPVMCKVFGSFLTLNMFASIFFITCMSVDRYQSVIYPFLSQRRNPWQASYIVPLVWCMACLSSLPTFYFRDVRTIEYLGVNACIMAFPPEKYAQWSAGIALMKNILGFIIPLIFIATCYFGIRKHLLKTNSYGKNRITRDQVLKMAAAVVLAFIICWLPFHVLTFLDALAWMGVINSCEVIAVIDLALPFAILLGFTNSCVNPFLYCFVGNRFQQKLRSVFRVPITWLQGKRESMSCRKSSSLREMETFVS
As to the kind of experiment: Binding affinity to angiotensin II receptor (unknown origin).

The next test deals with T2, B2 bradykinin receptor (Homo sapiens, UniProt P30411).
T2 sequence (P30411 whole entry): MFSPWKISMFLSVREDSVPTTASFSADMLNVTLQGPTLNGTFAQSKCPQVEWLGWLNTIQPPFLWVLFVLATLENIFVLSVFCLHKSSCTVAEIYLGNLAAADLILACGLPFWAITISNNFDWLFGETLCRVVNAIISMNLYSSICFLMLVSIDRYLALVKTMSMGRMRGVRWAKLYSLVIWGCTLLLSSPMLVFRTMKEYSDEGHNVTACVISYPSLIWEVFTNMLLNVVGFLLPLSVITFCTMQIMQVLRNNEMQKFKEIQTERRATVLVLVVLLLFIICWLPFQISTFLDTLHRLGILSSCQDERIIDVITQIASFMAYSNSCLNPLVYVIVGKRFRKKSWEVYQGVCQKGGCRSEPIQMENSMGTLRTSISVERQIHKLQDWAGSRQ
As to the kind of experiment: Displacement of [3H]BK from cloned human B2 bradykinin receptor expressed in CHO cells after 2 hrs by liquid scintillation counter. The class given is cell-based.

Test [4] concerns the target Histamine H3 receptor (Homo sapiens) (UniProt Q9Y5N1). As to the kind of experiment: Inverse agonist activity at human histamine H3 receptor expressed in SK-N-MC cells by beta-galactosidase reporter gene assay relative to histamine. It is filed as cell-based.
The target of another test is Vasopressin V2 receptor (Homo sapiens, UniProt P30518). As to the kind of experiment: Displacement of [3H]AVP from human Vasopressin V2 receptor expressed in HeLa cells after 2 hrs by liquid scintillation counter. It is filed as cell-based.
Sequence of Vasopressin V2 receptor (P30518 whole entry): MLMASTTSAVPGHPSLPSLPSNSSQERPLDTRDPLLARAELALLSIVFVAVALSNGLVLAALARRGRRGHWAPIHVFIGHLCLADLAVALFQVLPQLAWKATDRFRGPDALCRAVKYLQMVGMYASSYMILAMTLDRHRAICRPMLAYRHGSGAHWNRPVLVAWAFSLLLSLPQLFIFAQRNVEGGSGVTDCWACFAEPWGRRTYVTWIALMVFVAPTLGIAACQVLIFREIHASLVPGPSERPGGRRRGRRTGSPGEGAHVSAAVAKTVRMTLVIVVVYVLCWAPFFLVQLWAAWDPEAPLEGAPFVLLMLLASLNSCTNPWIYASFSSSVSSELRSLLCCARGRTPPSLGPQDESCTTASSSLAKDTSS

For orientation: Ki means a dissociation constant, usually derived from enzyme kinetics or from competition with a known ligand. In general, Kd refers to the free concentration of one partner at which half of the binding sites on the other are occupied at equilibrium, for simple one-to-one binding. A low value points to higher affinity. For orientation: IC50 means the concentration at which inhibition is half-maximal. A higher IC50 goes with weaker potency.

Consider `CCN(C(C)=O)C(C)c1ccccc1N1CCN(C(=O)[C@H](CC(=O)N2CCN(C(=O)OC(C)(C)C)CC2)Cc2ccc(Cl)cc2)CC1` (stereo partly drawn), for which the Ki at Melanocortin receptor 4 is 2 nM.
Take `CCCc1nc(C(C)(C)O)c(C(=O)O)n1Cc1ccc(-c2cc(Cc3ccc(O)cc3)ccc2-c2nnn[nH]2)cc1`: in test [1], binding was put at a Kd of 21 nM.
On to `CCCc1nc(C(C)(C)O)c(C(=O)O)n1Cc1ccc(-c2ccccc2-c2nnn[nH]2)cc1` [OLMESARTAN], for which the dissociation constant (Kd) in test [1] came to 2.3 nM.
Consider `c1nc(CCC2CCCNC2)c[nH]1` (stereo not drawn), for which, in test [2], the Intrinsic activity stood at 34%.
With `CCCCOC(=O)NS(=O)(=O)c1ccc(CC(C)C)cc1-c1ccc(Cn2c(CC)nc3c(C)cc(C)nc32)cc1`, the Ki in test [3] came out at 2.1 nM.
In turn, `CCCc1nc(C(C)(C)O)c(C(N)=O)n1Cc1ccc(-c2cc(Cc3ccc(O)cc3)ccc2-c2nnn[nH]2)cc1` gave a Kd in test [1] of 48 nM.
The compound `CCCCOC(=O)NS(=O)(=O)c1ccc(CCC)cc1-c1ccc(Cn2c(CC)nc3c(C)cc(C)nc32)cc1` yielded an inhibition constant (Ki) in test [3] of 1.5 nM.
Regarding `CCN(C(C)=O)C(C)c1ccccc1N1CCN(C(=O)[C@H](CC(=O)NC2CCC2)Cc2ccc(Cl)cc2)CC1` (stereo partly drawn), the Ki at Melanocortin receptor 4 was found to be 6 nM.
In the case of `CCCc1nc(C(C)(C)O)c(C(N)=O)n1Cc1ccc(-c2ccccc2-c2nnn[nH]2)cc1`, the Kd in test [1] worked out at 0.8 nM.
Compound `Cc1cc(OCc2ccccn2)c2cccc(OCc3c(Cl)ccc(N(C)C(=O)CNC(=O)/C=C/c4ccc(/C=C/c5ccncc5)nc4)c3Cl)c2n1` had an IC50 on B2 bradykinin receptor of 0.36 nM.
In test [4], `c1nc(CCCC2CCCNC2)c[nH]1` (stereo not drawn) showed an Intrinsic activity of 29%.
The compound `c1nc(CCC2CCNCC2)c[nH]1` came in with an Intrinsic activity in test [2] of 60%.
At Vasopressin V2 receptor, `Cc1cc(N)ccc1C(=O)N1CCCCc2cc(Cl)ccc21` returned an IC50 of 18 nM.
